Molecular target: T1, Caspase-1 (Homo sapiens, UniProt P29466)
T1 sequence (P29466 whole entry): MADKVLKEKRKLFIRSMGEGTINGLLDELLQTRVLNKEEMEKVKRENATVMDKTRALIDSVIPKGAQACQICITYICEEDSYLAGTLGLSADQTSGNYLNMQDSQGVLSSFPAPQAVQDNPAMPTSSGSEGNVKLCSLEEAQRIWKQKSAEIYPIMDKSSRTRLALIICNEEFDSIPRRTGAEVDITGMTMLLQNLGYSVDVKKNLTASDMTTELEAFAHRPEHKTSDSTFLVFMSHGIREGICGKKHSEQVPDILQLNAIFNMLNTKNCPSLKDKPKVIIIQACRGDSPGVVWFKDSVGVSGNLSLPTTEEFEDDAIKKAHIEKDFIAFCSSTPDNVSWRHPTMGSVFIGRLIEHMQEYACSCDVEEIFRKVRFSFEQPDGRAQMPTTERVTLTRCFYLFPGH
Experiment: The compound was tested for its inhibitory activity against IL-1 beta converting enzyme

Ki [µM]	SMILES
42	CC(C)[C@H](NC(=O)CCCCc1ccccc1)C(=O)N[C@@H](C)C(=O)NC(CC(=O)O)C(=O)C(F)(F)CCCc1ccccc1 (some centres not stated)
6	CC(C)[C@H](NC(=O)CCc1ccccc1)C(=O)N[C@@H](C)C(=O)NC(CC(=O)O)C(=O)C(F)(F)CCCc1ccccc1 (some centres not stated)

From ChEMBL document CHEMBL1127161, “Synthesis of a peptidyl 2,2-difluoro-4-phenylbutyl ketone and its evaluation as an inhibitor of interleukin-1 converting enzyme” (Bioorg Med Chem Lett, 1993)
